These results are taken from ChEMBL document CHEMBL1137917, “Synthesis and structure-activity investigation of iodinated arylhydantoins and arylthiohydantoins for development as androgen receptor radioligands” (Bioorg Med Chem Lett, 2004).

The target of this assay is T1, Androgen receptor (Rattus norvegicus, UniProt P15207).
T1 sequence (P15207 whole entry): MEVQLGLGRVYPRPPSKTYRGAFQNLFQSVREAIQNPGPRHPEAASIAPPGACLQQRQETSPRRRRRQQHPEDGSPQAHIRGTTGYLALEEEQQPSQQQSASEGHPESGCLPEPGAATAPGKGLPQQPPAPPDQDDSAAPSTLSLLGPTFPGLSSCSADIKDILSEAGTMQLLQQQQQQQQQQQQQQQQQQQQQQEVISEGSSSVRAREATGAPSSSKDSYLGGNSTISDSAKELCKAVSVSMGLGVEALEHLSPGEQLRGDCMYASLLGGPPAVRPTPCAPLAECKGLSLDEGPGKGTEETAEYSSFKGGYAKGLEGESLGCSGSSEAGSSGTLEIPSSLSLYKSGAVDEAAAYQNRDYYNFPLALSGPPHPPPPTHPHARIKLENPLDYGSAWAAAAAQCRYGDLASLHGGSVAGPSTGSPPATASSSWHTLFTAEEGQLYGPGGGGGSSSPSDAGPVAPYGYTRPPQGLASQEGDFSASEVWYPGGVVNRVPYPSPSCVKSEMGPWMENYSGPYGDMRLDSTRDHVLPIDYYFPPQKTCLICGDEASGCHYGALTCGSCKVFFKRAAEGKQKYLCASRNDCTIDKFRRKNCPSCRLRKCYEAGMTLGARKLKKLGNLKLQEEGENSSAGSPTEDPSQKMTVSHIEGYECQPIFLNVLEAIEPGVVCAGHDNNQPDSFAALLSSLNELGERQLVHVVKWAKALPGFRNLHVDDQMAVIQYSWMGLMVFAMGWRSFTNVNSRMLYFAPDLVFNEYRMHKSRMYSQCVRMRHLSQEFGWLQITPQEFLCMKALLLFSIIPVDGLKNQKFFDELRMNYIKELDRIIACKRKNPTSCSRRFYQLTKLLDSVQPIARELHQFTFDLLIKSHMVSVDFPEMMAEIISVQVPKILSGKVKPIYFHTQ
In words: Inhibition of rat prostate cytosolic androgen receptor.
For `CC1(C)C(=O)N(c2ccc(C#N)c(I)c2)C(=S)N1Cc1ccccc1`, the Ki is 219 nM.
Compound `CCCCN1C(=S)N(c2ccc(C#N)c(I)c2)C(=O)C1(C)C` came in with a Ki of 117 nM.
Regarding `CC1(C)C(=O)N(c2ccc(C#N)c(I)c2)C(=O)N1CCCCO`, the affinity, expressed as Ki, was 2 nM.
With `CN1C(=S)N(c2ccc(C#N)c(I)c2)C(=O)C1(C)C`, the affinity corresponds to a Ki of 2.5 nM.
In turn, `CCCCN1C(=O)N(c2ccc(C#N)c(I)c2)C(=O)C1(C)C` yielded a Ki of 77 nM.
With `COCCN1C(=S)N(c2ccc(C#N)c(I)c2)C(=O)C1(C)C` the figure was 37 nM; with `C=CCN1C(=O)N(c2ccc(C#N)c(I)c2)C(=O)C1(C)C`, 59 nM; with `CC1(C)C(=O)N(c2ccc(C#N)c(I)c2)C(=O)N1CCCc1ccccc1`, 639 nM.
